Test system: urease forming bacteria, Proteus
Assay: Urease inhibition activity (ammonia production by urease forming bacteria in artificial urine)
Assay type: cell-based
Experimental: PHA was tested for urease inhibition activity using the procedure of Griffith et al in Investigative Urology 13(5),346-350(1976). Briefly, one square centimeter of agar slab containing a layer of urease forming bacteria, Proteus, was dissolved in 25 ml of artificial urine made of 25 g urea dissolved in one liter water. 30 mg polymer was added per ml urine and the mixture incubated overnight at 37° C. The production of ammonia, indicative of urease activity, was measured using an amino acid analyzer.
*% activity was estimated relative to AHA from the ratio between the
decrease in ammonia number of the polymer and AHA.

For `CC(=O)NO` [AHA, acetyl hydroxamic acid], the Ammonia (30 mg per ml artificial urine, overnight at 37° C., amino acid analyzer) was 1165-1331 and the “% Activity” value (estimated relative to AHA from the ratio between the decrease in ammonia number of the polymer and AHA) was 100%.

— US5128420A, “Method of making hydroxamic acid polymers from primary amide polymers” (Massachusetts Institute of Technology, priority 1988, dated 1992)
